Laboratory results as given in patent publication US10233205B2, “Magnetic resonance imaging contrast agent capable of detecting hydrogen peroxide and reducing reactive oxygen species” (Auburn University, priority 2015, dated 2019).

Key:
[1] = Superoxide scavenging, hypoxanthine-xanthine oxidase / lucigenin luminescence; format: biochemical; details: 50 mM Tris-HCl pH 8.0
Experimental: Superoxide was produced in situ from a reaction between xanthine and xanthine oxidase. The subsequent reaction of the O2^− with lucigenin provided a spectroscopic signal that can be used to provide a qualitative measure of an anti-oxidant's ability to degrade O2^−. The copper/zinc superoxide dismutase isolated from bovine erythrocytes (0.001-100 U/ml, Calbiochem) was used as a positive control. The assay was carried out in a total volume of 1 mL containing 50 mM tris (pH 8.0), hypoxanthine (50 μM), xanthine oxidase (0.005 U/ml, Calbiochem) and dark adapted lucigenin (5 μM) in the presence of a complex (0.1 nM-10 μM) or their vehicle. Reactions were carried out at room temperature and were initiated by the addition of xanthine oxidase to the hypoxanthine-containing solution. Luminescence was measured using a TD-20/20 (Turner Designs) luminometer and expressed as relative light units (RLU). Luminescence was measure for four 10 s integrations after an initial delay of 3 s. The four RLU values were averaged, and each concentration was expressed as a percent of that produced in the presence of vehicle. Each assay data point was performed in duplicate and assays were repeated three times.
Superoxide was generated using a hypoxanthine-xanthine oxidase reaction and detected using the chemiluminescent probe lucigenin. Reactions were carried out in 50 mM Tris-HCl (pH 8.0) containing either 1, 2, or Cu/Zn SOD from bovine erythrocytes (insert). Data for the various concentrations of 1, 2, and SOD are expressed as a percentage of luminescence in the presence of vehicle.
The ability of 3 to degrade superoxide was tested using a standard technique that uses the reaction between xanthine oxidase and xanthine to generate O2^− and a subsequent reaction with the chemiluminescent probe lucigenin to detect it. Reactions were carried out in 50 mM Tris-HCl (pH 8.0). Data for the various concentrations of Mn(II) complex are expressed as a percentage of luminescence in the presence of vehicle.

H9c2 cells = assay: Cytotoxicity, CyQUANT cell number; format: cell-based; design: dose tolerated by H9c2 cells: unit not given here
Experimental: H9c2 cells were obtained from the American Tissue Type Collection (Manassas, Va., USA) and grown at 37° C. with 95% humidity and 5% CO2. Cells were grown in Dulbecco's modified eagles medium (DMEM) supplemented with 10% fetal bovine serum. Experiments were performed at 70-80% confluence. All experiments were performed in DMEM in the absence of fetal bovine serum. To determine the cytotoxic effects of 1 and 2, the H9c2 cells were exposed to increasing concentrations of these reagents or their vehicle in DMEM for either 4 or 24 h. The cell number was assessed using the CyQUANT Cell Proliferation Assay Kit (Life Technologies Corporation, Carlsbad, Calif.) per manufacturer's instructions. Cell number was expressed as a percentage of that measured for the vehicle-treated cells. Values are expressed as mean and SEM and represent three experiments performed in triplicate.
The toxicity of 3 was tested using H9c2 cells in order to facilitate comparison to that of 1. H9c2 cells were obtained from the American Tissue Type Collection (Manassas, Va., USA) and grown at 37° C. with 95% humidity and 5% CO2. Cells were grown in Dulbecco's modified eagles medium (DMEM) supplemented with 10% fetal bovine serum. Experiments were performed at 70-80% confluence. To determine the cytotoxic effects of 3, H9c2 cells were exposed to increasing concentrations of 3 ([…]) or its vehicle in DMEM for 4 or 24 hr. Cell number was assessed using the CyQUANT Cell Proliferation Assay Kit (Life Technologies Corporation, Carlsbad, Calif.) per manufacturer's instructions. Cell number was expressed as percentage of the vehicle-treated cells. Values are expressed as mean and standard deviation and represent 2-4 experiments performed in triplicate. The bars marked with an * display a significant difference from the vehicle-treated cell number for corresponding time period (p<0.05).

| Molecule | superoxide scavenging [1] | H9c2 cells surviving (H9c2 cells; 10 μM, 24 h) | concentration without cell death / within error of control (H9c2 cells; 4 h) | dose tolerated by H9c2 cells (H9c2 cells; 4 h) | concentration without impact on H9c2 viability (H9c2 cells; 24 h) | dose tolerated by H9c2 cells (H9c2 cells; 24 h) |
| --- | --- | --- | --- | --- | --- | --- |
| CC#N.O=S(=O)([O-])C(F)(F)F.O=S(=O)([O-])C(F)(F)F.[Mn+2].[O-]c1ccc(O)cc1CN(CCN(Cc1ccccn1)Cc1ccccn1)Cc1ccccn1 [Complex 1, Acetonitrilo(N-(2,5-dihydroxy-benzyl)-N,N′,N′-tris(2-pyridinylmethyl)-1,2-ethanediamine)manganese(II) triflate] | successfully intercepts O2^− | less than 50% | 10 µM | 10 | 1.0 µM | 1.0 |
| CC#N.Cc1ccc(O)c(CN(CCN(Cc2ccccn2)Cc2ccccn2)Cc2ccccn2)c1.[Mn+2].[O-][Cl+3]([O-])([O-])[O-].[O-][Cl+3]([O-])([O-])[O-] [Complex 2, reference compound] | successfully intercepts O2^− | – | – | 10 | – | – |
| cis-Dibromo(N,N′-bis(2,5-dihydroxybenzyl)-N,N′-bis(2-pyridinylmethyl)-1,2-ethanediamine)manganese(II) [Complex 3] | successfully intercepts O2^− | – | 50 µM | – | 10 µM | – |
